Reference: patent US20170231929A1, “METHOD FOR ENHANCING IMMUNE CELL FUNCTION AND METHOD FOR ASSESSING IMMUNE CELL MULTIFUNCTIONALITY” (NATIONAL UNIVERSITY CORPORATION OKAYAMA UNIVERSITY, priority 2014, published 2017)

Test system: CD8^+T cells
Assay: Multifunctionality of CD8^+T cells of primary lung cancer patients (stage I) after metformin treatment of PBMC (flow cytometer)
Assay type: cell-based, human
Conditions: for Decrease, IFNγ 1-cytokine-producing cell / Decrease, IFNγ/IL-2 2-cytokine-producing cell / Decrease, IFNγ/TNFα 2-cytokine-producing cell / Decrease, IFNγ/TNFα/IL2 3-cytokine-producing cell / Increase, IFNγ 1-cytokine-producing cell / Increase, IFNγ/IL-2 2-cytokine-producing cell / Increase, IFNγ/TNFα 2-cytokine-producing cell / Increase, IFNγ/TNFα/IL2 3-cytokine-producing cell / No Change, IFNγ 1-cytokine-producing cell / No Change, IFNγ/IL-2 2-cytokine-producing cell / No Change, IFNγ/TNFα 2-cytokine-producing cell / No Change, IFNγ/TNFα/IL2 3-cytokine-producing cell: Cancer Patients (stage I)
Protocol: 1. Peripheral blood was obtained from a test subject, and PBMC was separated by a density-gradient centrifugation using a lymphocyte-separating reagent Ficoll-Paque® (GE Healthcare). 3 mL of Ficoll-Paque® was dispensed in a 15-mL tube. 8 mL of the peripheral blood was gently placed on the reagent. At this time, care should be taken not to mix Ficoll-Paque® with the peripheral blood. Centrifugation was performed at 400 g for 30 minutes, thereby separating PBMC. 2. The separated PBMC was preserved in a −150° C. freezer or liquid nitrogen using Bambang Car cell preservation liquid by adjusting the cell number to 2.0×10^6 cell/tube. 3. In the test, the thawed PBMC was cultured for 1 to 10 hours in the presence or absence of […]. The culture was performed using a 24-well plate, and the cell number was adjusted to about 5.0×10^5 cell/well. 4. The cells were collected after 1 to 10 hours, washed with medium, and cultured in the presence of a cell activation reagent (potent nanomolar activator of protein kinase C (PMA, 50 ng/mL), ionomycin (1 μM)) for 6 hours, thereby non-specifically stimulating T cells. At this time, BD Gorgi Stop™ was added to keep the produced cytokines inside the cells. 5. The cells were isolated and washed twice with a cell-staining buffer. First, staining of CD8, PD-1, Tim-3, which are molecules expressed on the T cell surface, was performed. In the staining, a staining buffer was added in an amount of 50 μL per sample. The culture was performed at 4° C. for 30 minutes. 6. The cells were collected and washed twice with a cell-staining buffer. 500 μL of BD Cytofix/Cytoperm was added and cultured at 4° C. for 30 minutes. 7. The cells were collected and washed twice with BD Perm/Wash™. Staining of cytokines IL-2, TNFα, and IFNγ was performed. In the staining, BD Perm/Wash™ was added in an amount of 50 μL per sample. The culture was performed at 4° C. for 30 minutes. 8. The cells were collected and washed twice with BD Perm/Wash™, and 200 μL of BD Perm/Wash™ was added. 9. Analysis was performed using a FACSCanto™ II flow cytometer (Becton, Dickinson and Company).
Among the PBMC treated with PMA/ionomycin in the method shown in (2) above, first, a gate was applied to CD8^+T cells using a FACSCanto™ II flow cytometer (Becton, Dickinson and Company), and then […] were removed by FSC-A and FSC-H. Using parameters FSC-A and SSC-A, a gate was applied to a lymphocyte group, thereby analyzing expression of PD-1 and Tim-3. Further, intracellular cytokines IFNγ, TNFα, and IL-2 were stained, and multifunctionality of CD8^+T cells contained in the PBMC was analyzed (FIG. 1).
Each PBMC obtained from 31 primary lung cancer patients (stage I) was cultured for an hour in the same manner as in (4) in the presence or absence of metformin. After metformin was removed, each resulting PBMC was analyzed. In a representative example, the CD8^+T cells untreated with metformin were determined to be 0.92%, and the CD8^+T cells treated with metformin were determined to be 1.44% (FIG. 3). Accordingly, it was judged that, in comparison with healthy subjects, multifunctionality of CD8^+T cells was increased by a metformin treatment in many cancer patients.
Among the cancer patients treated as above, the ratios of CD8^+T cells producing three kinds of cytokines (IFNγ/TNFα/IL-2), CD8^+T cells producing two kinds of cytokines (IFNγ/TNFα or IFNγ/IL-2), CD8^+T cells producing one kind of cytokine (IFNγ) with respect to the entire CD8^+T cells were calculated according to the same analysis as in (4), and shown in Table 2. The calculation results were compared between the metformin-untreated group (control) and the metformin-treated group (metformin).
This Example analyzed test results of recovery of multifunctionality of CD8^+T cells by metformin in 10 healthy subjects and 31 cancer patients (stage I) based on the results obtained by the method in Example 1. […]

[1] = total CD8^+T cells, cancer patients (stage I)

CN(C)C(=N)N=C(N)N [metformin]
Decrease, IFNγ 1-cytokine-producing cell (PD-1+, Tim-3+, patients/total): 10/31
Decrease, IFNγ/IL-2 2-cytokine-producing cell (PD-1+, Tim-3+, patients/total): 8/31
Decrease, IFNγ/TNFα 2-cytokine-producing cell (PD-1+, Tim-3+, patients/total): 9/31
Decrease, IFNγ/TNFα/IL2 3-cytokine-producing cell (PD-1+, Tim-3+, patients/total): 7/31
Increase, IFNγ 1-cytokine-producing cell (PD-1+, Tim-3+, patients/total): 19/31
Increase, IFNγ/IL-2 2-cytokine-producing cell (PD-1+, Tim-3+, patients/total): 9/31
Increase, IFNγ/TNFα 2-cytokine-producing cell (PD-1+, Tim-3+, patients/total): 11/31
Increase, IFNγ/TNFα/IL2 3-cytokine-producing cell (PD-1+, Tim-3+, patients/total): 11/31
No Change, IFNγ 1-cytokine-producing cell (PD-1+, Tim-3+, patients/total): 2/31
No Change, IFNγ/IL-2 2-cytokine-producing cell (PD-1+, Tim-3+, patients/total): 14/31
No Change, IFNγ/TNFα 2-cytokine-producing cell (PD-1+, Tim-3+, patients/total): 11/31
No Change, IFNγ/TNFα/IL2 3-cytokine-producing cell (PD-1+, Tim-3+, patients/total): 13/31
Decrease, IFNγ 1-cytokine-producing cell (PD-1+, Tim-3−, patients/total): 10/31
Decrease, IFNγ/IL-2 2-cytokine-producing cell (PD-1+, Tim-3−, patients/total): 12/31
Decrease, IFNγ/TNFα 2-cytokine-producing cell (PD-1+, Tim-3−, patients/total): 10/31
Decrease, IFNγ/TNFα/IL2 3-cytokine-producing cell (PD-1+, Tim-3−, patients/total): 10/31
Increase, IFNγ 1-cytokine-producing cell (PD-1+, Tim-3−, patients/total): 11/31
Increase, IFNγ/IL-2 2-cytokine-producing cell (PD-1+, Tim-3−, patients/total): 12/31
Increase, IFNγ/TNFα 2-cytokine-producing cell (PD-1+, Tim-3−, patients/total): 10/31
Increase, IFNγ/TNFα/IL2 3-cytokine-producing cell (PD-1+, Tim-3−, patients/total): 14/31
No Change, IFNγ 1-cytokine-producing cell (PD-1+, Tim-3−, patients/total): 10/31
No Change, IFNγ/IL-2 2-cytokine-producing cell (PD-1+, Tim-3−, patients/total): 7/31
No Change, IFNγ/TNFα 2-cytokine-producing cell (PD-1+, Tim-3−, patients/total): 11/31
No Change, IFNγ/TNFα/IL2 3-cytokine-producing cell (PD-1+, Tim-3−, patients/total): 7/31
Decrease, IFNγ 1-cytokine-producing cell (PD-1−, Tim-3+, patients/total): 14/31
Decrease, IFNγ/IL-2 2-cytokine-producing cell (PD-1−, Tim-3+, patients/total): 9/31
Decrease, IFNγ/TNFα 2-cytokine-producing cell (PD-1−, Tim-3+, patients/total): 8/31
Decrease, IFNγ/TNFα/IL2 3-cytokine-producing cell (PD-1−, Tim-3+, patients/total): 6/31
Increase, IFNγ 1-cytokine-producing cell (PD-1−, Tim-3+, patients/total): 10/31
Increase, IFNγ/IL-2 2-cytokine-producing cell (PD-1−, Tim-3+, patients/total): 13/31
Increase, IFNγ/TNFα 2-cytokine-producing cell (PD-1−, Tim-3+, patients/total): 13/31
Increase, IFNγ/TNFα/IL2 3-cytokine-producing cell (PD-1−, Tim-3+, patients/total): 12/31
No Change, IFNγ 1-cytokine-producing cell (PD-1−, Tim-3+, patients/total): 7/31
No Change, IFNγ/IL-2 2-cytokine-producing cell (PD-1−, Tim-3+, patients/total): 9/31
No Change, IFNγ/TNFα 2-cytokine-producing cell (PD-1−, Tim-3+, patients/total): 10/31
No Change, IFNγ/TNFα/IL2 3-cytokine-producing cell (PD-1−, Tim-3+, patients/total): 13/31
Decrease, IFNγ 1-cytokine-producing cell (PD-1−, Tim-3−, patients/total): 16/31
Decrease, IFNγ/IL-2 2-cytokine-producing cell (PD-1−, Tim-3−, patients/total): 17/31
Decrease, IFNγ/TNFα 2-cytokine-producing cell (PD-1−, Tim-3−, patients/total): 14/31
Decrease, IFNγ/TNFα/IL2 3-cytokine-producing cell (PD-1−, Tim-3−, patients/total): 14/31
Increase, IFNγ 1-cytokine-producing cell (PD-1−, Tim-3−, patients/total): 9/31
Increase, IFNγ/IL-2 2-cytokine-producing cell (PD-1−, Tim-3−, patients/total): 12/31
Increase, IFNγ/TNFα 2-cytokine-producing cell (PD-1−, Tim-3−, patients/total): 13/31
Increase, IFNγ/TNFα/IL2 3-cytokine-producing cell (PD-1−, Tim-3−, patients/total): 13/31
No Change, IFNγ 1-cytokine-producing cell (PD-1−, Tim-3−, patients/total): 6/31
No Change, IFNγ/IL-2 2-cytokine-producing cell (PD-1−, Tim-3−, patients/total): 2/31
No Change, IFNγ/TNFα 2-cytokine-producing cell (PD-1−, Tim-3−, patients/total): 4/31
No Change, IFNγ/TNFα/IL2 3-cytokine-producing cell (PD-1−, Tim-3−, patients/total): 4/31
Decrease, IFNγ 1-cytokine-producing cell (Total CD8T, patients/total): 13/31
Decrease, IFNγ/IL-2 2-cytokine-producing cell (Total CD8T, patients/total): 15/31
Decrease, IFNγ/TNFα 2-cytokine-producing cell (Total CD8T, patients/total): 12/31
Decrease, IFNγ/TNFα/IL2 3-cytokine-producing cell (Total CD8T, patients/total): 12/31
Increase, IFNγ 1-cytokine-producing cell (Total CD8T, patients/total): 5/31
Increase, IFNγ/IL-2 2-cytokine-producing cell (Total CD8T, patients/total): 13/31
Increase, IFNγ/TNFα 2-cytokine-producing cell (Total CD8T, patients/total): 15/31
Increase, IFNγ/TNFα/IL2 3-cytokine-producing cell (Total CD8T, patients/total): 14/31
No Change, IFNγ 1-cytokine-producing cell (Total CD8T, patients/total): 13/31
No Change, IFNγ/IL-2 2-cytokine-producing cell (Total CD8T, patients/total): 3/31
No Change, IFNγ/TNFα 2-cytokine-producing cell (Total CD8T, patients/total): 4/31
No Change, IFNγ/TNFα/IL2 3-cytokine-producing cell (Total CD8T, patients/total): 5/31
Increase + No Change, IFNγ/TNFα/IL2, share of patients (Total CD8T, Patients (stage I)): 61.3%
Increase + No Change, IFNγ/TNFα/IL2 (Total CD8T, Patients (stage I), patients/total): 19/31
multifunctionality of CD8^+T cells by a metformin treatment (many cancer patients, in comparison with healthy subjects): increased
CD8^+T cells capable of simultaneously producing IFNγ, TNFα and IL-2, treated with metformin (primary lung cancer patients (stage I), representative example, FIG. 3, untreated with metformin 0.92%): 1.44%
decrease in multifunctionality (three kinds of cytokines), share of patients [1]: 38.7%
increase in multifunctionality (three kinds of cytokines), share of patients [1]: 45.2%
